Measured values reported in US20050069541A1, “Composition for and treatment of demyelinating diseases and paralysis by administration of remyelinating agents” (priority 2003, published 2005).
“Also recorded” adds a separate entry of the source.

Columns and labels:
[1] = biological target: α4 integrin (Homo sapiens, UniProt P05556+P13612); experiment: Inhibition of cell adhesion to VCAM; format: cell-based, human and guinea pig; details: human and guinea pig integrin; read-out: IC50 for inhibition of cell adhesion to VCAM
α4 integrin, sequence (P13612 34-1032): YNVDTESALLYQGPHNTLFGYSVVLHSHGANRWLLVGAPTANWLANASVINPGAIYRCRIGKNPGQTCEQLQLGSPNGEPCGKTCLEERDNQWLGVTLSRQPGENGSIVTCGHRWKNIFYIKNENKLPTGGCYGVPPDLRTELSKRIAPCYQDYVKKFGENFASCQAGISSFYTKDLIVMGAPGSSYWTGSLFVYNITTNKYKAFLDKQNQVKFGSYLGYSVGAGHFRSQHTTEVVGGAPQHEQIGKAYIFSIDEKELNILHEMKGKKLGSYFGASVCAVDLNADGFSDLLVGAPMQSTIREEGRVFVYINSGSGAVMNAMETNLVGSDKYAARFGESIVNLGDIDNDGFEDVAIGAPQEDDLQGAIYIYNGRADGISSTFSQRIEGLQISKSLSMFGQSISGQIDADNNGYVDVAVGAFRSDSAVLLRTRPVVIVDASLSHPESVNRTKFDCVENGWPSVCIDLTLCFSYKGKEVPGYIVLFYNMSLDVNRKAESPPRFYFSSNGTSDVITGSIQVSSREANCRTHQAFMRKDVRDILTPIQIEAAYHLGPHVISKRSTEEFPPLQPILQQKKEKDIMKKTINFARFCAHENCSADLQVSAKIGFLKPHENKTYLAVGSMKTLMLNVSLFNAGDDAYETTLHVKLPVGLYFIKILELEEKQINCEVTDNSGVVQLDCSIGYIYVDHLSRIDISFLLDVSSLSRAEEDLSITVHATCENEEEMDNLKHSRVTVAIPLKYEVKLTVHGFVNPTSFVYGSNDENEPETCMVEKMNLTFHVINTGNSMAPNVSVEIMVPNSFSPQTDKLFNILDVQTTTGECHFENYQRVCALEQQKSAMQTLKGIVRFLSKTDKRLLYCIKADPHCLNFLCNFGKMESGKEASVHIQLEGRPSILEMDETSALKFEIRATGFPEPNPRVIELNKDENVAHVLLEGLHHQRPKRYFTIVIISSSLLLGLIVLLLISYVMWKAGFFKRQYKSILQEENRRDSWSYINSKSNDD
α4 integrin, sequence (P05556 21-798): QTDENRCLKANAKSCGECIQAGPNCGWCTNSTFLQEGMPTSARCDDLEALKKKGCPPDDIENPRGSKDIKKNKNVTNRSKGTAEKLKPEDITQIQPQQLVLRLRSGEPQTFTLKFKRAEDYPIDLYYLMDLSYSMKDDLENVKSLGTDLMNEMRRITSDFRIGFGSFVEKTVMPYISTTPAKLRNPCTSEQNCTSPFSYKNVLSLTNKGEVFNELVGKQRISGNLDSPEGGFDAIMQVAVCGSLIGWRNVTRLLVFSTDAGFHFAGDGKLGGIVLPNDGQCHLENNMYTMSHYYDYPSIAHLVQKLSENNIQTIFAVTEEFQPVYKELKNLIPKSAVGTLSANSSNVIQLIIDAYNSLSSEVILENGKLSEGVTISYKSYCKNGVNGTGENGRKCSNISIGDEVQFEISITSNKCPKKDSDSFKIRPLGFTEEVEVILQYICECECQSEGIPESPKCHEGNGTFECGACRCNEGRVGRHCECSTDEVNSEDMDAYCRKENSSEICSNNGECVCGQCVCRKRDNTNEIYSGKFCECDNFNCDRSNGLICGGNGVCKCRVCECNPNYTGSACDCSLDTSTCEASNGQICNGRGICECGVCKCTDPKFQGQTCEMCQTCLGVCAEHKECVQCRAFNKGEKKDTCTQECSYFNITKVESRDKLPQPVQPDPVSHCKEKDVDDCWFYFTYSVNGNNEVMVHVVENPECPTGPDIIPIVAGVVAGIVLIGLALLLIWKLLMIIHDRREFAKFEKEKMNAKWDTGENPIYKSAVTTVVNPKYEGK

[2] = system: α4 integrin on circulating lymphocytes and monocytes; experiment: Chronic EAE: FACS analysis of α4 integrin on circulating cells, day 80; format: in vivo, guinea pig
Experimental: FACS Analysis. On day 80 post-immunization, heparinized blood samples were collected from non-EAE animals, saline-treated animals, N-[N-(3-pyridinesulfonyl)-L-3,3-dimethyl-4-thiaprolyl]-O-[1-methylpiperazin-4-ylcarbonyl]-L-tyrosine isopropyl ester-treated animals and animals 10 days following withdrawal of N-[N-(3-pyridinesulfonyl)-L-3,3-dimethyl-4-thiaprolyl]-O-[1-methylpiperazin-4-ylcarbonyl]-L-tyrosine isopropyl ester. All samples were maintained at 4° C. for all procedures. 150 μl samples were exposed to primary antibody for 30 minutes, washed twice, and then incubated with PE-conjugated goat anti-mouse IgG Fc in the presence of 5% guinea pig serum (Beckman Coulter #PN EM055 1). Red blood cells were lysed with Becton-Dickinson lysing solution and the samples were examined on a FACScan flow cytometer (Becton Dickinson, Mountain View, Calif.) gating on different cell populations by light scatter.

[3] = system: guinea pig model of CP-EAE; details: with increasing duration of treatment; Piraino et al., 2002; cited from earlier work
[4] = system: infiltrating cells in spinal cord; experiment: Chronic EAE: mean cell counts in spinal cord (H-E sections, 0.12 mm^2 fields); format: in vivo, guinea pig; details: for Mean # Cells/0.12 mm^2: spinal cord
Experimental: To quantify the abnormalities observed in the spinal cord, sections stained with H-E were divided into 12 representative pie-shaped areas. In each area, the number of cells within a 0.12 mm^2 field of view was counted using Sigma Scan Pro image analysis software (SPSS Inc.), and the combined mean number of cells in all 12 areas was calculated for the whole spinal cord (36 fields of view per animal). Note that as all cell nuclei were counted, the number of cells may include neurons and glial cells in addition to infiltrates.

[5] = system: spinal cord lesions of paralyzed EAE guinea pigs; experiment: Example 2: spontaneous remyelination in chronic EAE (SCR, toluidine blue, EM, lesion area analysis, motor function); format: in vivo, guinea pig
[6] = system: IL-2, IL-10, MCP-1 RNA; experiment: Chronic EAE: quantitative RT-PCR of spinal cord; format: in vivo, guinea pig
Experimental: Quantitative Reverse Transcription-PCR: IL-2, IL-10, MCP-1. RNA was isolated from 30 mg of frozen guinea pig spinal cord using the S.N.A.P.™ (simple nucleic acid preparation) total RNA Isolation Kit (Invitrogen) according to manufacturer's instructions, modified to include a second DNAse treatment step followed by an additional purification over the S.N.A.P. column.
Primer/probe sequences and concentrations for IL-2, IL-10, and MCP-1 are given in Table 7, as well as the standard RNA used for each gene. RT-PCR was carried out in triplicate using the ABI PRISM® 7700 Sequence Detection System. 50 μl reactions contained 10 to 800 ng of total RNA and primers and probes at the concentrations indicated above in reaction buffer consisting of 6.67% glycerol (Amresco); 5.5 mM MgCl; 300 μM DATP, dCTP, dGTP, and dUTP; 100 nM probe; 1.25 unit of AmpliTaq Gold® DNA Polymerase (Applied Biosystems); 1× TaqMan® Buffer A (TaqMan® PCR Core reagents kit, Applied Biosystems), 20 units of RNase Inhibitor (Roche); 1.25 unit of murine leukemia virus (MuLV) Reverse Transcriptase (Applied Biosystems). Reverse-transcription of RNA was carried out at 48° C. for 30 min., followed by a 10 min. denaturing step at 95° C. PCR was carried out by 40 thermo-cycles consisting of 95° C. for 15 seconds followed by 60° C. for 1 minute. Each plate included a standard curve using the standard RNA listed in Table 7 and two additional control samples: 1) a positive control RNA sample used on all plates, 2) a non-template control (NTC).
The correlation coefficients of the standard curves were greater than 0.990 for all data shown. The coefficients of variation for sample triplicates were less than 0.2. Since the RNA used for the standard curve is a heterogeneous mix of RNA containing a constant but unknown amount of the target message, the numbers calculated are relative.

Q: With `CC(C)OC(=O)[C@H](Cc1ccc(OC(=O)N2CCN(C)CC2)cc1)NC(=O)[C@H]1N(S(=O)(=O)c2cccnc2)CSC1(C)C` [N-[N-(3-pyridinesulfonyl)-L-3,3-dimethyl-4-thiaprolyl]-O-[1-methylpiperazin-4-ylcarbonyl]-L-tyrosine isopropyl ester] as the compound, how does the IC50 [1] read?
A: Its IC50 is 1 nM.

Q: What about the “percentage of α4 integrin bright lymphocytes in the circulation after removal of compound” value ([2]; 10 days after withdrawal) of the same compound?
A: Its value is “returned to saline-treated levels”.

Q: And the “increase of α4 integrin expression on circulating monocytes in EAE” value ([2]; day 80)?
A: Its value is “not affected”.

Q: What about the “α4 integrin bright lymphocytes in the circulation versus saline” value ([2]; day 80 post immunization) of the same compound?
A: Its value is “large increase”.

Q: And the “immune cell infiltrates and associated inflammatory mediators” value [3]?
A: Its value is “progressively reduce immune cell infiltrates”.

Q: What about the “cell number in spinal cord versus saline-treated animals” value ([4]; after 10, 20, 30 or 40 days, p<0.001 two-way ANOVA) of the same compound?
A: Its value is “significant reduction”.

Q: What about the “mean cell counts versus chronic (d40) control EAE animals” value ([4]; after 20, 30 or 40 days, p<0.05) of the same compound?
A: Its value is “significantly lower”.

Q: What about the “mean cell count in spinal cord versus non-EAE animals” value ([4]; after 40 days of treatment) of the same compound?
A: The value was “not different”.

Q: What about the “mean cell count after removal of compound for 10 days versus continuous treatment” value ([4]; p<0.05) of the same compound?
A: Its value is “significant increase”.

Q: What about the “rate of cell loss from spinal cord” value ([4]; slope of linear regression of mean cell counts, r^2=0.90) of the same compound?
A: Its value is 8 cells/mm^2/day.

Q: What about the “Mean # Cells/0.12 mm^2” value ([4]; D50 (10 days of treatment)) of the same compound?
A: Its value is 97 ± 3.9 cells/0.12 mm^2.

Q: What about the “Mean # Cells/0.12 mm^2” value ([4]; D60 (20 days of treatment)) of the same compound?
A: Its value is 86 ± 4.2 cells/0.12 mm^2.

Q: What about the “Mean # Cells/0.12 mm^2” value ([4]; D70 (30 days of treatment)) of the same compound?
A: The value was 89 ± 8 cells/0.12 mm^2.

Q: What about the “Mean # Cells/0.12 mm^2” value ([4]; D80 (40 days of treatment)) of the same compound?
A: The value was 70 ± 4 cells/0.12 mm^2.

Q: And the “myelin repair, share of the total lesion area” value ([5]; 30 mg/kg twice daily s.c.)?
A: The value was 50%.

Q: What about the “SCR-stained spinal cord after 10 days of treatment” value ([5]; 10 days) of the same compound?
A: Its value is “minimal evidence of myelin pallor”.

Q: What about the “SCR-stained spinal cord lesions after 20 days of treatment” value ([5]; 20 days) of the same compound?
A: Its value is “many lesions exhibited diffuse pale blue staining”.

Q: And the “SCR-stained spinal cord lesions after 40 days of treatment” value ([5]; 40 days)?
A: The value was “presented as shadow plaques”.

Q: What about the “plaques showing evidence of remyelination” value ([5]; after 40 days of treatment, 30 mg/kg twice daily s.c.) of the same compound?
A: The value was 87%.

Q: What about the “semithin and EM sections of lesions” value ([5]; day 30 of treatment) of the same compound?
A: The value was “multiple thin myelin layers around large caliber axons”.

Q: What about the “animals that regained motor function” value ([5]; paralyzed guinea pigs, clinical score 2 at start) of the same compound?
A: Its value is 50%.

Q: And the “cytokine RNA after withdrawal of compound” value ([6]; 10 days after withdrawal)?
A: Its value is “returned to levels comparable to saline-treated animals”.

Q: And the “IL-2 RNA in spinal cord during treatment” value ([6]; lumbar spinal cord)?
A: Its value is “almost no detectable IL-2 RNA”.

Q: What about the “inflammatory cytokine RNA (IL-2, IL-10, MCP-1) during treatment” value ([6]; lumbar spinal cord, versus saline) of the same compound?
A: The value was “significant reduction; also recorded: marked decrease”.
